Results on 33 compounds are retold here after patent publication US7608712B2, “Pyridine imidazoles and aza-indoles as progesterone receptor modulators” (Janssen Pharmaceutica N.V., priority 2004, dated 2009).

For the experiment, the system named is T47D human breast cancer cells. Put plainly: T47D alkaline phosphatase assay (In Vitro Test). The class given is cell-based. To be noted: for % inh.: Table 3, test concentration not given; for inhibition at 3 µM / inhibition at 10 µM: read-out: % inh. As to the method: T47D human breast cancer cells are grown in RPMI medium without phenol red (Invitrogen) containing 10% (v/v) heat-inactivated fetal bovine serum (FBS; Hyclone), 1% (v/v) penicillin-streptomycin (Invitrogen), 1% (w/v) glutamine (Invitrogen), and […] insulin (Sigma). Incubation conditions are 37 °C in a humidified 5% (v/v) carbon dioxide environment. For assay, the cells are plated in 96-well tissue culture plates at 10,000 cells per well in assay medium [RPMI medium without phenol red (Invitrogen) containing 5% (v/v) charcoal-treated FBS (Hyclone) and 1% (v/v) penicillin-streptomycin (Invitrogen)]. Two days later, the medium is decanted and the compounds are added in a final concentration of 0.1% (v/v) dimethyl sulfoxide in fresh assay medium. Twenty-four hours later, an alkaline phosphatase assay is performed using a SEAP kit (BD Biosciences Clontech, Palo Alto, Calif.). Briefly, the medium is decanted and the cells are fixed for 30 minutes at room temperature with 5% (v/v) formalin (Sigma). The cells are washed once with room temperature Hank's buffered saline solution (Invitrogen). Equal volumes (0.05 mL) of 1× Dilution Buffer, Assay Buffer and 1:20 substrate/enhancer mixture are added. After 1-hour incubation at room temperature in the dark, the lysate is transferred to a white 96-well plate (Dynex) and luminescence is read using a LuminoSkan Ascent (Thermo Electron, Woburn, Mass.).

Read-outs that look alike come from different tables or passages of the source.

As for `CC1(C)C(=O)N=C2C=CC(c3ccccc3Cl)=CN21` [Example 14, 6-(2-Chloro-phenyl)-3,3-dimethyl-imidazo[1,2-a]pyridin-2-one], the “% inh.” value is given as 0%.

As to `O=C1N=C2C=CC(c3cccc([N+](=O)[O-])c3)=CN2C12CCCC2` [Example 27, 6-(3-nitro-phenyl)-3,3-spiro[pentane]-imidazo[1,2-a]pyridin-2-one], the “% inh.” value is 86%. Same read-out and setting: to `O=C1N=C2C=CC(c3cc(F)cc(F)c3)=CN2C12CCCCC2` [Example 21, 6-(3,5-Difluoro-phenyl)-3,3-spiro[cyclohexane]-imidazo[1,2-a]pyridin-2-one] belongs 99%. On the same count and under the same terms, the result for `O=C1N=C2C=CC(c3ccc(Cl)c(Cl)c3)=CN2C12CCCCC2` [Example 22] reads 88%. Consider `CC1(C)C(=O)N=C2C=CC(Cl)=CN21` [Example 5, 6-Chloro-3,3-dimethyl-imidazo[1,2-a]pyridin-2-one], for which the “% inh.” value stood at 31%. Still for that read-out and setting: to `O=C1N=C2C=CC(c3ccc(F)cc3F)=CN2C12CCCCC2` [Example 23, 6-(2,4-Difluoro-phenyl)-3,3-spiro[cyclohexane]-imidazo[1,2-a]pyridin-2-one] belongs 96%; to `COc1cccc(C2=CN3C(=NC(=O)C34CCCCC4)C=C2)c1` [Example 16, 6-(3-Methoxy-phenyl)-3,3-spiro[cyclohexane]-imidazo[1,2-a]pyridin-2-one], 01%; to `N#Cc1cccc(C2=CN3C(=NC(=O)C34CCCC4)C=C2)c1` [Example 25, 6-(3-cyano-phenyl)-3,3-spiro[pentane]-imidazo[1,2-a]pyridin-2-one], 2%. With `O=C1N=C2C=CC(c3cccc([N+](=O)[O-])c3)=CN2C12CCCCC2` [Example 18, 6-(3-nitro-phenyl)-3,3-spiro[cyclohexane]-imidazo[1,2-a]pyridin-2-one], the “% inh.” value turned out to be 98%. Turning to `CC1(C)C(=O)Nc2ncc(-c3cccc(F)c3)cc21` [Example 31, 5-(3-Fluoro-phenyl)-3,3-dimethyl-1,3-dihydro-pyrrolo[2,3-b]pyridin-2-one], for the setting “Homo sapiens, T47D”, the 50% inhibitory concentration (IC50) was 4.48 µM, the inhibition at 3 µM was 95% and the inhibition at 10 µM was found to be 92%. As for `O=C1N=C2C=CC(c3cccc(Cl)c3)=CN2C12CCCC2` [Example 24, 6-(3-chloro-phenyl)-3,3-spiro[pentane]-imidazo[1,2-a]pyridin-2-one], the “% inh.” value is 1%. `O=C1N=C2C=CC(c3ccc(Cl)c(Cl)c3)=CN2C12CCCC2` [Example 28, 6-(3,4-Dichloro-phenyl)-3,3-spiro[pentane]-imidazo[1,2-a]pyridin-2-one]: the “% inh.” value is listed as 22%. This compound also returned a concentration giving a half-maximal response (EC50) (Homo sapiens, T47D, activation (footnote to Table 3)) of 1.95 µM. For `O=C1N=C2C=CC(c3ccc(F)c(Cl)c3)=CN2C12CCCC2` [Example 30, 6-(3-Chloro-4-fluoro-phenyl)-3,3-spiro[pentane]-imidazo[1,2-a]pyridin-2-one], the “% inh.” value was determined as 21%. The same measure, in the same setting: the result for `O=C1N=C2C=CC(c3cccc(F)c3)=CN2C12CCCCC2` [Example 15, 6-(3-Fluoro-phenyl)-3,3-spiro[cyclohexane]-imidazo[1,2-a]pyridin-2-one] reads 0%; that for `N#Cc1cccc(C2=CN3C(=NC(=O)C34CCCCC4)C=C2)c1` [Example 20, 6-(3-cyano-phenyl)-3,3-spiro[cyclohexane]-imidazo[1,2-a]pyridin-2-one], 96%; that for `CC1(C)C(=O)N=C2C=CC(c3cc(F)cc(F)c3)=CN21` [Example 7, 6-(3,5-Difluoro-phenyl)-3,3-dimethyl-imidazo[1,2-a]pyridin-2-one], 40%.

Consider `COc1cccc(C2=CN3C(=NC(=O)C3(C)C)C=C2)c1` [Example 12, 6-(3-Methoxy-phenyl)-3,3-dimethyl-imidazo[1,2-a]pyridin-2-one], for which the “% inh.” value was 3.1%. Same read-out and setting: the result for `CC1(C)C(=O)N=C2C=CC(c3ccc(F)cc3F)=CN21` [Example 10, 6-(2,4-Difluoro-phenyl)-3,3-dimethyl-imidazo[1,2-a]pyridin-2-one] reads 29%; that for `O=C1N=C2C=CC(c3cc(C(F)(F)F)cc(C(F)(F)F)c3)=CN2C12CCCC2` [Example 29, 6-(3,5-Bis-trifluoromethyl-phenyl)-3,3-spiro[pentane]-imidazo[1,2-a]pyridin-2-one], 25%. Still for that read-out and setting: to `CC1(C)C(=O)N=C2C=CC(Br)=CN21` [Example 1-C1, 6-Bromo-3,3-dimethyl-imidazo[1,2-a]pyridin-2-one] belongs 53%; to `O=C1N=C2C=CC(c3cccc(C(F)(F)F)c3)=CN2C12CCCCC2` [Example 19, 6-(3-trifluoromethyl-phenyl)-3,3-spiro[cyclohexane]-imidazo[1,2-a]pyridin-2-one], 97%; to `O=C1N=C2C=CC(c3cc(C(F)(F)F)cc(C(F)(F)F)c3)=CN2C12CCCCC2` [Example 17, 6-(3,5-Bis-trifluoromethyl-phenyl)-3,3-spiro[cyclohexane]-imidazo[1,2-a]pyridin-2-one], 04%. On the same count and under the same terms, to `O=C1N=C2C=CC(Cl)=CN2C12CCCCC2` [Example 6, 6-Chloro-spiro[cyclohexane]-imidazo[1,2-a]pyridin-2-one] belongs 42%. In the case of `CC1(C)C(=O)N=C2C=CC(c3cccc(C#N)c3)=CN21` [Example 4, 3-(3,3-Dimethyl-2-oxo-2,3-dihydro-imidazo[1,2-a]pyridin-6-yl)-benzonitrile], the “% inh.” value turned out to be 19%. Same read-out and setting: the result for `CC1(C)C(=O)N=C2C=CC(c3cccc(C(F)(F)F)c3)=CN21` [Example 9, 3,3-Dimethyl-6-(3-trifluoromethyl-phenyl)-imidazo[1,2-a]pyridin-2-one] reads 17%; that for `CC1(C)C(=O)N=C2C=CC(c3cc(C(F)(F)F)cc(C(F)(F)F)c3)=CN21` [Example 11, 6-(3,5-Bis-trifluoromethyl-phenyl)-3,3-dimethyl-imidazo[1,2-a]pyridin-2-one], 19%; that for `O=C1N=C2C=CC(c3cccc(Cl)c3)=CN2C12CCCCC2` [Example 3, 6-(3-chloro-phenyl)-3,3-spiro[cyclohexane]-imidazo[1,2-a]pyridin-2-one], 104%. Same read-out and setting: the result for `O=C1N=C2C=CC(c3cccc(F)c3)=CN2C12CCCC2` [Example 26, 6-(3-Fluoro-phenyl)-3,3-spiro[pentane]-imidazo[1,2-a]pyridin-2-one] reads 2%; that for `CC1(C)C(=O)N=C2C=CC(c3cccc(Cl)c3)=CN21` [Example 2, 6-(3-Chloro-phenyl)-3,3-dimethyl-imidazo[1,2-a]pyridin-2-one], 15%; that for `CC1(C)C(=O)N=C2C=CC(c3cccc(F)c3)=CN21` [Example 13, 6-(3-Fluoro-phenyl)-3,3-dimethyl-imidazo[1,2-a]pyridin-2-one], 14%. The same measure, in the same setting: to `CC1(C)C(=O)N=C2C=CC(c3cccc([N+](=O)[O-])c3)=CN21` [Example 8, 3,3-Dimethyl-6-(3-nitro-phenyl)-imidazo[1,2-a]pyridin-2-one] belongs 33%.

Consider `O=C1Nc2ncc(-c3cccc(F)c3)cc2C12CCCCC2` [Example 32, 5-(3-Fluoro-phenyl)-3,3-spiro[cyclohexane]-1,3-dihydro-pyrrolo[2,3-b]pyridin-2-one], for which the inhibition at 3 µM (Homo sapiens, T47D, @ 3 uM) was 58%. Besides, for the setting “Homo sapiens, T47D, @ 10 uM”, the inhibition at 10 µM came out at 58%. The IC50 (Homo sapiens, T47D, Table 4, read-out: IC50) was determined as 7.03 µM. As for `O=C1N=C2C=CC(Br)=CN2C12CCCC2` [Example 1-C2, 6-Bromo-3,3-spiro[cyclopentane]-imidazo[1,2-a]pyridin-2-one], the “% inh.” value was found to be 35%.

The IC50 is the point on the concentration scale where inhibition reaches its midpoint. Usually EC50 stands for the midpoint of the concentration-response curve. A low value points to an effect from little substance.
